Positions of bridges follow the written chain, without caps; N, C: chain ends. Non-standard residues stand in square brackets, D forms with d. Residues, ends and D or L forms follow the SMILES beside them. Gly(N-(CH2)3N-pyrrolidone) = O=C(O)CNCCCN1CCCC1=O; Phe(3-Cl) = N[C@@H](Cc1cccc(Cl)c1)C(=O)O; Phe(4-Me) = Cc1ccc(C[C@H](N)C(=O)O)cc1; 2Nal = N[C@@H](Cc1ccc2ccccc2c1)C(=O)O; His(τ-Me) = Cn1cnc(C[C@H](N)C(=O)O)c1; Bta = N[C@@H](Cc1csc2ccccc12)C(=O)O; d(hLeu) = CC(C)CC[C@@H](N)C(=O)O; 3Pal = N[C@@H](Cc1cccnc1)C(=O)O; Cit = NC(=O)NCCC[C@H](N)C(=O)O; dCha = N[C@H](CC1CCCCC1)C(=O)O; Nle = CCCC[C@H](N)C(=O)O; Orn = NCCC[C@H](N)C(=O)O; Aze = O=C(O)[C@@H]1CCN1; Nme = COCCNCC(=O)O Some results are limits rather than exact numbers.

One assay concerns the target T1, human C5aR(CD88) (Homo sapiens, UniProt P21730).
T1 construct: expressed in transfected cells; host or cells: rat basophilic leukemia cells (RBL)
T1 sequence (P21730 1-350): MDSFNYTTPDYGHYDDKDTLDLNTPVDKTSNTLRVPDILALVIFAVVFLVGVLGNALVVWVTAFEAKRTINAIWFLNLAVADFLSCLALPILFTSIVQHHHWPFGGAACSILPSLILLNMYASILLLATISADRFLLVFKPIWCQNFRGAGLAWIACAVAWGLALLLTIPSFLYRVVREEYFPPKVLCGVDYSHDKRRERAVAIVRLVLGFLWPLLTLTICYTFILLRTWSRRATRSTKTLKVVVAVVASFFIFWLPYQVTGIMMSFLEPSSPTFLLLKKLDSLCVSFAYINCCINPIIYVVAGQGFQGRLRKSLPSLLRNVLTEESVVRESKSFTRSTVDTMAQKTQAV
Put plainly: Determination of the IC50 value in an enzyme release assay (functional assay, antagonistic activity). In kind it is cell-based. Particulars: antagonistic activity; IC50 group in enzyme release assay, RBL cells expressing human C5aR(CD88); read-out: activity (group).
As to `CC(=O)N[C@@H](Cc1ccccc1)C(=O)N[C@H]1CCCNC(=O)[C@H](Cc2ccc(C)cc2)NC(=O)[C@H](Cc2c[nH]c3ccccc23)NC(=O)[C@@H](CC2CCCCC2)NC(=O)[C@@H]2CCCN2C1=O` [Compound 36, Ac-Phe-[Orn-Pro-cha-Trp-Pmf]] (Ac-F[Orn]P[dCha]W[Phe(4-Me)]; lactam 2-C), the IC50 fell in the range of 20 to 50 nM.

`CC(=O)N[C@@H](Cc1ccccc1)C(=O)N[C@H]1CCCNC(=O)[C@H](CCCNC(N)=O)NC(=O)[C@H](Cc2c[nH]c3ccccc23)NC(=O)[C@@H](CC2CCCCC2)NC(=O)[C@@H]2CCCN2C1=O` [Compound 10, Ac-Phe-[Orn-Pro-cha-Trp-Cit], reference compound]: the IC50 lay in the range of 200 to 2000 nM.

Turning to `CC(=O)N[C@@H](CO)C(=O)N[C@@H](Cc1ccccc1)C(=O)N[C@@H](CCCN)C(=O)N1CC[C@H]1C(=O)N[C@H](CC1CCCCC1)C(=O)N[C@@H](Cc1csc2ccccc12)C(=O)N[C@@H](Cc1ccccc1)C(N)=O` [Compound 139, Ac-Ser-Phe-Orn-Aze-cha-Bta-Phe-NH2] (Ac-SF[Orn][Aze][dCha][Bta]F-NH2), the IC50 lay within 50 to 200 nM.

On to `CC(=O)N[C@@H](Cc1ccccc1)C(=O)N[C@H]1CCCNC(=O)[C@H](CCCCN)NC(=O)[C@H](Cc2c[nH]c3ccccc23)NC(=O)[C@@H](CC2CCCCC2)NC(=O)[C@@H]2CCCN2C1=O` [Compound 22] (Ac-F[Orn]P[dCha]WK; lactam 2-C (inferred)), for which the IC50 is more than 2000 nM.

As to `CCCC[C@@H]1NC(=O)[C@H](Cc2c[nH]c3ccccc23)NC(=O)[C@@H](CCC(C)C)NC(=O)[C@H](CO)NC(=O)[C@@H](NC(=O)[C@@H](N)Cc2ccccc2)CCCNC1=O` [Compound 390, H-Phe-[Orn-Ser-hle-Trp-Nle]] (H-F[Orn]S[d(hLeu)]W[Nle]; lactam 2-C), the IC50 lay in the range of 20 to 50 nM.

In the case of `CC(=O)N[C@@H](Cc1ccccc1)C(=O)N[C@@H](CCCN)C(=O)N1CC[C@H]1C(=O)N[C@H](CC1CCCCC1)C(=O)N[C@@H](Cc1cccc(Cl)c1)C(=O)N[C@@H](Cc1ccccc1)C(N)=O` [Compound 100, Ac-Phe-Orn-Aze-cha-Mcf-Phe-NH2] (Ac-F[Orn][Aze][dCha][Phe(3-Cl)]F-NH2), the IC50 fell in the range of 50 to 200 nM.

With `CC(=O)N[C@@H](Cc1ccccc1)C(=O)N[C@@H](CCCN)C(=O)N(CCCN1CCCC1=O)CC(=O)N[C@H](CC1CCCCC1)C(=O)N[C@@H](Cc1csc2ccccc12)C(=O)N[C@@H](Cc1ccccc1)C(N)=O` [Compound 241, Ac-Phe-Orn-G30-cha-Bta-Phe-NH2] (Ac-F[Orn][Gly(N-(CH2)3N-pyrrolidone)][dCha][Bta]F-NH2), the IC50 was in the range of 50 to 200 nM.

On to `CC(=O)N[C@@H](Cc1ccccc1)C(=O)N[C@H]1CCCNC(=O)[C@H](Cc2cn(C)cn2)NC(=O)[C@H](Cc2c[nH]c3ccccc23)NC(=O)[C@@H](CC2CCCCC2)NC(=O)[C@@H]2CCCN2C1=O` [Compound 192, Ac-Phe-[Orn-Pro-cha-Trp-Ecr]] (Ac-F[Orn]P[dCha]W[His(τ-Me)]; lactam 2-C), for which the IC50 is 20 to 50 nM.

`CC(C)CC[C@@H](NC(=O)[C@@H]1CCCN1C(=O)[C@H](CCCNC(N)=O)NC(=O)[C@@H](N)Cc1ccccc1)C(=O)N[C@@H](Cc1csc2ccccc12)C(=O)N[C@@H](Cc1ccccc1)C(N)=O` [Compound 391, H-Phe-Cit-Pro-hle-Bta-Phe-NH2] (H-F[Cit]P[d(hLeu)][Bta]F-NH2): the IC50 lay within 50 to 200 nM.

Take `CC(=O)N[C@@H](Cc1ccccc1)C(=O)N[C@@H](Cc1cccnc1)C(=O)N1CCC[C@H]1C(=O)N[C@H](CC1CCCCC1)C(=O)N[C@@H](Cc1csc2ccccc12)C(=O)N[C@@H](Cc1ccccc1)C(N)=O` [Compound 124, Ac-Phe-Mpa-Pro-cha-Bta-Phe-NH2] (Ac-F[3Pal]P[dCha][Bta]F-NH2): the IC50 lay within 50 to 200 nM.

As to `CC(=O)N[C@@H](Cc1ccccc1)C(=O)N[C@H]1CCCNC(=O)[C@H](Cc2ccc3ccccc3c2)NC(=O)[C@H](Cc2c[nH]c3ccccc23)NC(=O)[C@@H](CC2CCCCC2)NC(=O)[C@@H]2CCCN2C1=O` [Compound 37, Ac-Phe-[Orn-Pro-cha-Trp-2Ni]] (Ac-F[Orn]P[dCha]W[2Nal]; lactam 2-C), the IC50 fell in the range of 50 to 200 nM.

Take `COCCN(CC(=O)N[C@H](CC1CCCCC1)C(=O)N[C@@H](Cc1csc2ccccc12)C(=O)N[C@@H](Cc1ccccc1)C(N)=O)C(=O)[C@H](CCCN)NC(=O)[C@H](Cc1ccccc1)NC(C)=O` [Compound 238, Ac-Phe-Orn-G25-cha-Bta-Phe-NH2] (Ac-F[Orn][Nme][dCha][Bta]F-NH2): the IC50 lay in the range of 50 to 200 nM.

The same assay, now with this note: functional assay of example 11; noteworthy = IC50 less than 200 nM.
As to `CC(=O)N[C@@H](Cc1ccccc1)C(=O)N[C@H]1CCCNC(=O)[C@H](Cc2ccc(C)cc2)NC(=O)[C@H](Cc2c[nH]c3ccccc23)NC(=O)[C@@H](CC2CCCCC2)NC(=O)[C@@H]2CCCN2C1=O` [Compound 36, Ac-Phe-[Orn-Pro-cha-Trp-Pmf]] (Ac-F[Orn]P[dCha]W[Phe(4-Me)]; lactam 2-C), the “inhibitory activity (in words)” value was “without significant loss of activity”.

For `CC(=O)N[C@@H](Cc1ccccc1)C(=O)N[C@H]1CCCNC(=O)[C@H](Cc2ccc3ccccc3c2)NC(=O)[C@H](Cc2c[nH]c3ccccc23)NC(=O)[C@@H](CC2CCCCC2)NC(=O)[C@@H]2CCCN2C1=O` [Compound 37, Ac-Phe-[Orn-Pro-cha-Trp-2Ni]] (Ac-F[Orn]P[dCha]W[2Nal]; lactam 2-C), the “inhibitory activity (in words)” value was “without significant loss of activity”.

Staying with this assay, now noted: functional assay of example 11; noteworthy = IC50 less than 200 nM; listed as Ac-Phe-[Orn-Pro-cha-Trp-2Ni].
In the case of `CC(=O)N[C@@H](Cc1ccccc1)C(=O)N[C@H]1CCCNC(=O)[C@H](Cc2ccc3ccccc3c2)NC(=O)[C@H](Cc2c[nH]c3ccccc23)NC(=O)[C@@H](CC2CCCCC2)NC(=O)[C@@H]2CCCN2C1=O` [Compound 37, Ac-Phe-[Orn-Pro-cha-Trp-2Ni]] (Ac-F[Orn]P[dCha]W[2Nal]; lactam 2-C), the “inhibitory activity (in words)” value was “noteworthy inhibitory activity”.

The assay is the same for the next values; noted with them: functional assay of example 11; noteworthy = IC50 less than 200 nM; listed as Ac-Phe-[Orn-Pro-cha-Trp-Pmf].
Regarding `CC(=O)N[C@@H](Cc1ccccc1)C(=O)N[C@H]1CCCNC(=O)[C@H](Cc2ccc(C)cc2)NC(=O)[C@H](Cc2c[nH]c3ccccc23)NC(=O)[C@@H](CC2CCCCC2)NC(=O)[C@@H]2CCCN2C1=O` [Compound 36, Ac-Phe-[Orn-Pro-cha-Trp-Pmf]] (Ac-F[Orn]P[dCha]W[Phe(4-Me)]; lactam 2-C), the “inhibitory activity (in words)” value is “noteworthy inhibitory activity”.

For the origin of these results see patent US20080161232A1, “C5a Receptor Antagonist” (JERINI AG, priority 2005, published 2008).
